61 compounds from PMC5607274, “An iterative compound screening contest method for identifying target protein inhibitors using the tyrosine-protein kinase Yes” (Scientific Reports, 2017) can be followed below.

This test deals with T1, human recombinant Yes [a.a. 2–543 (end)] (Homo sapiens, UniProt P07947).
T1 construct: human recombinant Yes [a.a; 2–543 (end)]; purchased BPS Bioscience 40488
In words: ADP-Glo kinase assay, inhibition rates of Yes phosphorylation activity (first and second screening). Type of test: biochemical. The settings on record: 10 μmol L−1 compound; for First screening IR (inhibition rate): mean of n = 4 wells; for Second screening IR (inhibition rate): dissolved from fresh powder, n = 4. A digest of the protocol: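 ADP-Glo luminescence measured inhibition of human recombinant Yes (a.a. 2–543) phosphorylation activity. In the first screen, each compound ran in 4 wells and inhibition rates were averaged. The second screen retested hits as compounds dissolved from fresh powder.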
On the technique in general: ADP-Glo first removes unused ATP, then detects ADP through luciferase.

T1 sequence (P07947 2-543): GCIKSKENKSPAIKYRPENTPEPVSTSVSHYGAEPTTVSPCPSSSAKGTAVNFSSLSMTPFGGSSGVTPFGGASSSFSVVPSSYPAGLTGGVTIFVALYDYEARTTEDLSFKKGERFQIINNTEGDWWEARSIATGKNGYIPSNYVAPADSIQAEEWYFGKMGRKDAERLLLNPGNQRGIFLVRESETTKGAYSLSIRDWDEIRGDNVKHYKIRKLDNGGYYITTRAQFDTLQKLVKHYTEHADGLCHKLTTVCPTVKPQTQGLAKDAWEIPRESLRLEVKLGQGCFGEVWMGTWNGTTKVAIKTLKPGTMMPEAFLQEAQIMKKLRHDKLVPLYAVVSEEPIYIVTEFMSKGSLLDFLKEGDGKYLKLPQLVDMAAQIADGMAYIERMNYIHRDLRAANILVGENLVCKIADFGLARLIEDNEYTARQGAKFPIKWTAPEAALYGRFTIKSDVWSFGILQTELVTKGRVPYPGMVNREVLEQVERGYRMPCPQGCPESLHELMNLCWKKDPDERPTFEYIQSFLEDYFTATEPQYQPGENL

Take `CC(=O)NCCNC(=O)c1cc(-c2ccccc2)nc2c1cnn2Cc1ccccc1Cl` [Compound Z228081748]: the “First screening IR (inhibition rate)” value is 50%.

On to `O=C(NCCc1nc2ccccc2[nH]1)c1cc(-c2ccccc2)nc2c1cnn2Cc1ccco1` [Compound Z228153102], for which the “First screening IR (inhibition rate)” value amounted to 7%.

Take `Cc1cc(-c2cc(C(=O)Nc3ccc(N4CCN(C)CC4)nc3)c3cnn(C(C)C)c3n2)c(C)o1` [Compound Z228220646]: the “First screening IR (inhibition rate)” value is 15%.

With `O=c1[nH]c(SCc2coc(-c3ccccc3)n2)nc2sccc12` [Compound Z228473210], the “First screening IR (inhibition rate)” value is -4%.

Take `NC(=O)COC(=O)c1cc(-c2ccccc2)nc2c1cnn2Cc1ccccc1` [Compound Z228517946]: the “First screening IR (inhibition rate)” value is listed as 4%.

Consider `CNC(=O)NC(=O)COC(=O)c1cc(-c2ccccc2)nc2c1cnn2Cc1ccccc1` [Compound Z228518838], for which the “First screening IR (inhibition rate)” value is listed as -8%.

Take `Cc1cc(COC(=O)c2cc(-c3ccccc3)nc3c2cnn3Cc2ccccc2)no1` [Compound Z228519880]: the “First screening IR (inhibition rate)” value is -10%.

In the case of `N#Cc1cccc(/C=C2/C(=O)Nc3ccccc32)c1` [Compound Z228595564], the “First screening IR (inhibition rate)” value is 8%.

On to `Cc1nn(C)c2nc(-c3ccccc3)cc(C(=O)Nc3ccc4[nH]c(=O)[nH]c4c3)c12` [Compound Z228695802], for which the “First screening IR (inhibition rate)” value was -6%.

`O=C(Nc1cccnc1)C1CCN(C(=O)c2ccc(C(F)(F)F)cc2)CC1` [Compound Z228734424]: the “First screening IR (inhibition rate)” value was -1%.

Consider `Cn1ncc2c(NCC3(c4ccccc4)CC3)ncnc21` [Compound Z229243940], for which the “First screening IR (inhibition rate)” value is -5%.

Take `CC(NC(=O)C(C)N1CCCN(Cc2ccc(C#N)cc2)CC1)c1ccccc1` (stereo not drawn) [Compound Z229381330]: the “First screening IR (inhibition rate)” value was -12%.

For the compound `Cc1ccccc1-c1cc(C(N)=O)c2cnn(C(C)C)c2n1` [Compound Z229615400], the “First screening IR (inhibition rate)” value came to 14%.

Regarding `O=C(Nc1ccc(N2CCOCC2)nc1)c1cc(-c2ccc(Cl)cc2)n[nH]1` [Compound Z229828974], the “First screening IR (inhibition rate)” value worked out at 8%.

As to `Cc1ccc(CSCC(=O)NC(Cc2ncc[nH]2)c2ccccc2)cc1` (stereo not drawn) [Compound Z230096354], the “First screening IR (inhibition rate)” value came to 28%.

In the case of `O=C(CN1C(=O)c2ccccc2C1=O)NCc1cn(Cc2ccccc2)nc1-c1ccccc1` [Compound Z230132198], the “First screening IR (inhibition rate)” value came to 24%.

For `CCn1c(C)cc(C(=O)N2CCc3[nH]c4ccccc4c3C2)c1C` [Compound Z231937310], the “First screening IR (inhibition rate)” value was 6%.

For the compound `Cc1cccc(N=C2NN=C(c3ccc(CCNS(C)(=O)=O)s3)CS2)c1C` [Compound Z232307154], the “First screening IR (inhibition rate)” value was found to be 37% and the “Second screening IR (inhibition rate)” value is listed as -3%.

Turning to `CN(C)c1nc(N)nc(CSCc2nc3ccccc3s2)n1` [Compound Z232651876], the “First screening IR (inhibition rate)” value is reported as -13%.

For `CC(SCc1nc(N)nc(N(C)C)n1)C(=O)Nc1ccc(F)cc1` (stereo not drawn) [Compound Z232651902], the “First screening IR (inhibition rate)” value is reported as -3%.

Take `O=C(NCCc1cnn(-c2ccccc2)c1)c1cnn(-c2ccccc2)c1` [Compound Z234515634]: the “First screening IR (inhibition rate)” value is given as -7%.

In the case of `O=C(NCc1ccco1)c1cc(-c2cccnc2)nc2c1cnn2Cc1ccccc1Cl` [Compound Z234860216], the “First screening IR (inhibition rate)” value is recorded as 19%.

On to `Cc1c(C#N)c(NC(=O)CN2CCN(c3ncnc4c3cnn4C)CC2)n(Cc2ccccc2)c1C` [Compound Z234865770], for which the “First screening IR (inhibition rate)” value is 13%.

Consider `Cc1nn(C)c2nc(C3CC3)cc(C(=O)Nc3ccccc3O)c12` [Compound Z235446856], for which the “First screening IR (inhibition rate)” value was found to be 27%.

On to `NC(=S)c1cc(C(=O)c2ccccc2O)cn2c1nc1ccccc12` [Compound Z235467022], for which the “First screening IR (inhibition rate)” value was 5%.

For the compound `Cc1ccc(-c2noc(CN3CCN(Cc4nc5ccccc5c(=O)n4Cc4ccco4)CC3)n2)cc1` [Compound Z235827834], the “First screening IR (inhibition rate)” value is 3%.

In the case of `CC(=O)c1c[nH]c(C(=O)NCc2csc(-c3ccccc3)n2)c1` [Compound Z236994250], the “First screening IR (inhibition rate)” value is 4%.

Consider `CCc1ccc(-n2c(-c3ccccc3)cn3c4c(=O)n(CCN5CCOCC5)c(=O)n(C)c4nc23)cc1` [Compound Z237376112], for which the “First screening IR (inhibition rate)” value came to 39% and the “Second screening IR (inhibition rate)” value is 20%.

Take `Cc1cc(Cl)cc(Br)c1OCCNCCN(C)C.Cl` [Compound Z237479802]: the “First screening IR (inhibition rate)” value was 9%.

`NS(=O)(=O)c1cccc(S(=O)(=O)Cl)c1` [Compound Z237480338]: the “First screening IR (inhibition rate)” value is recorded as 3%.

Turning to `CCCCN(C1CCS(=O)(=O)C1)S(C)(=O)=O` (stereo not drawn) [Compound Z237523250], the “First screening IR (inhibition rate)” value is on record as -21%.

For the compound `Cc1ccc(-n2c(-c3ccccc3)cn3c4c(=O)n(CCN5CCOCC5)c(=O)n(C)c4nc23)cc1` [Compound Z237731508], the “First screening IR (inhibition rate)” value is recorded as 14%.

For the compound `Cc1ccc(C)c(CN2CCN(c3nc4c(c(=O)[nH]c(=O)n4C)n3C/C=C/c3ccccc3)CC2)c1` [Compound Z237731644], the “First screening IR (inhibition rate)” value was 5%.

As to `Cc1ccc(C)c(CN2CCN(c3nc4c(c(=O)[nH]c(=O)n4C)n3Cc3ccc(Cl)cc3)CC2)c1` [Compound Z237733696], the “First screening IR (inhibition rate)” value is 8%.

In the case of `Cc1ccc(C)c(Cn2c(N3CCN(C/C=C/c4ccccc4)CC3)nc3c2c(=O)[nH]c(=O)n3C)c1` [Compound Z237733700], the “First screening IR (inhibition rate)” value is 36%.

Turning to `NS(=O)(=O)c1cccc(S(=O)(=O)N2CCCCC2)c1` [Compound Z237744790], the “First screening IR (inhibition rate)” value is listed as -8%.

Take `CCCN(CCC)S(=O)(=O)c1cccc(S(N)(=O)=O)c1` [Compound Z237751694]: the “First screening IR (inhibition rate)” value is -9%.

Regarding `CCN(CC)C(CNC(=O)C1CCN(c2ccc3nnc(C(F)(F)F)n3n2)CC1)c1ccccc1` (stereo not drawn) [Compound Z237862822], the “First screening IR (inhibition rate)” value is recorded as 0%.

Take `CCN(C(=O)c1cc(-c2ccccc2)nc2c1cnn2Cc1cccnc1)c1ccccc1` [Compound Z238053762]: the “First screening IR (inhibition rate)” value is given as -11%.

As to `CC(C)(C)OC(=O)N1CCN(C(=O)c2cc(-c3ccccc3)nc3c2cnn3Cc2ccncc2)CC1` [Compound Z238073806], the “First screening IR (inhibition rate)” value amounted to 5%.

On to `CN(C(=O)c1ccc2c(c1)CC(c1ccccc1)OC2=O)c1nc2ccccc2s1` (stereo not drawn) [Compound Z238298390], for which the “First screening IR (inhibition rate)” value is recorded as -4%.

In the case of `O=C(CN1CCOCC1)N1CCN(Cn2nc(-c3ccccc3)n(-c3ccc(F)cc3)c2=S)CC1` [Compound Z238616284], the “First screening IR (inhibition rate)” value is recorded as -5%.

Regarding `CCOC(=O)c1sc2nc(CN3CCOCC3)nc(Nc3ccc(N4CCCCC4)nc3)c2c1C` [Compound Z238683848], the “First screening IR (inhibition rate)” value is given as 37%.

For `CC1CN(CCCNc2ccc([N+](=O)[O-])c3nonc23)CC(C)O1` (stereo not drawn) [Compound Z238688270], the “First screening IR (inhibition rate)” value was determined as 4%.

On to `Clc1ccc(-c2csc(Nc3ccccc3)n2)s1` [Compound Z238765362], for which the “First screening IR (inhibition rate)” value is listed as 28%.

For `CC(=O)c1ccc(N2CCN(CC(=O)c3cc(C)[nH]c3C)CC2)c(F)c1` [Compound Z238811284], the “First screening IR (inhibition rate)” value was 1%.

Regarding `CC(C(=O)NC(c1ccccc1)c1ccccc1)N1CCN(c2ncnc3c2cnn3C)CC1` (stereo not drawn) [Compound Z238831180], the “First screening IR (inhibition rate)” value is 64%.

`Cn1c(=O)[nH]c(=O)c2c1nc(CN1CCN(c3cccc(Cl)c3)CC1)n2CCCc1ccccc1` [Compound Z238883342]: the “First screening IR (inhibition rate)” value is recorded as -1%.

For `Cn1c(=O)[nH]c(=O)c2c1nc(N1CCC(Cc3ccccc3)CC1)n2CCSc1nnnn1-c1ccccc1` [Compound Z239083338], the “First screening IR (inhibition rate)” value is 2%.

As to `Cn1c(=O)[nH]c(=O)c2c1nc(N1CCN(Cc3ccccc3)CC1)n2CCSc1nnnn1-c1ccccc1` [Compound Z239092730], the “First screening IR (inhibition rate)” value was found to be 47%.

In the case of `Cc1nn(C)c2ncc(NC(=O)c3cc(-c4ccco4)nc4onc(C)c34)cc12` [Compound Z239539964], the “First screening IR (inhibition rate)” value is 1%.

For the compound `NC(=O)C1CCCN(c2nc(-c3ccncc3)nc3ccccc23)C1` (stereo not drawn) [Compound Z239623050], the “First screening IR (inhibition rate)” value is listed as 13%.

With `COc1ccc(-n2c(-c3ccccc3)cn3c4c(=O)n(CCN5CCCCC5)c(=O)n(C)c4nc23)cc1` [Compound Z241121498], the “First screening IR (inhibition rate)” value is on record as -22%.

As to `O=C(NCc1ccccn1)c1cc(-c2cccnc2)nc2c1cnn2Cc1ccco1` [Compound Z242175442], the “First screening IR (inhibition rate)” value stood at 22%.

For the compound `Cc1ccc(Cn2c(=O)c3c(nc4n(-c5ccc(S(N)(=O)=O)cc5)c(C)cn34)n(C)c2=O)cc1` [Compound Z244561242], the “First screening IR (inhibition rate)” value stood at 9%.

For the compound `Nc1nc(NCC(=O)O)nc(NCC2CCCO2)c1[N+](=O)[O-]` (stereo not drawn) [Compound Z244561600], the “First screening IR (inhibition rate)” value turned out to be 9%.

Take `COc1ccc(Nc2nc(N3CCCCC3)nc(N)c2[N+](=O)[O-])cc1` [Compound Z245295930]: the “First screening IR (inhibition rate)” value was 8%.

In the case of `NC(=O)C(c1ccccc1)N1CCC(CCc2ccc(O)cc2)CC1` (stereo not drawn) [Compound Z245304076], the “First screening IR (inhibition rate)” value is listed as -19%.

As to `O=C(Nc1nc2cc(C(F)(F)F)ccc2n1Cc1ccco1)c1ccc2n[nH]nc2c1` [Compound Z245503032], the “First screening IR (inhibition rate)” value came to 0%.

As for `Cn1c(=O)[nH]c(=O)c2c1nc(N1CCN(C/C=C/c3ccccc3)CC1)n2Cc1ccc(Cl)cc1` [Compound Z246071802], the “First screening IR (inhibition rate)” value is -14%.

On to `O=S(=O)(Nc1cnc2ccccc2c1)c1ccc(Cl)c(Cl)c1` [Compound Z246801514], for which the “First screening IR (inhibition rate)” value worked out at 3%.
